Experimental data from patent US11117947B2, “Double-acylated GLP-1 derivatives” (Novo Nordisk A/S, priority 2011, dated 2021).
Numbered stars: 1 amine (or outer) side, 2 acyl side, 3 side chain; on linkers, the order of the positions; unused ones are H or OH. Square brackets hold non-standard residues; d marks the D form. Side chains are listed from the residue outwards. Peptide text beside a SMILES is read from it. * marks the point of attachment. Decanoyl(10-(4-HOOC-PhO)) = O=C(O)c1ccc(OCCCCCCCCCC(=O)*)cc1; γGlu = O=C(O)[C@H](CCC(=O)[*:2])N[*:1]; C14 diacid = O=C(O)CCCCCCCCCCCCC(=O)*; AEEA = NCCOCCOCC(=O)O; Aib = CC(C)(N)C(=O)O

Assays:
human GLP-1 receptor = molecular target: T1, human GLP-1 receptor (Homo sapiens, UniProt P43220); assay: GLP-1 receptor binding: displacement of 125I-GLP-1 (SPA) at low and high albumin
T1 construct: expressed in transfected cells; membranes
Protocol: The purpose of this experiment is to investigate the binding to the GLP-1 receptor of the GLP-1 derivatives, and how the binding is potentially influenced by the presence of albumin. This is done in an in vitro experiment as described below.
In order to test the binding of the derivatives to albumin, the assay was performed with a low concentration of albumin (0.001%—corresponding to the residual amount thereof in the tracer), as well as with a high concentration of albumin (2.0% added). A shift in the binding affinity, IC50, is an indication that the peptide in question binds to albumin, and thereby a prediction of a potential protracted pharmacokinetic profile of the peptide in question in animal models.
Species (in vitro): Hamster
Biological End Point: Receptor Binding
A stable transfected cell line and a high expressing clone were selected for screening. The cells were grown at 5% CO2 in DMEM, 10% FCS, 1% Pen/Strep (Penicillin/Streptomycin) and 1.0 mg/ml of the selection marker G418.
The cells (approx. 80% confluence) were washed twice in PBS and harvested with Versene (aqueous solution of the tetrasodium salt of ethylenediaminetetraacetic acid), following which they were separated by centrifugation at 1000 rpm for 5 min. The cells/cell pellet must be kept on ice to the extent possible in the subsequent steps. The cell pellet was homogenised with Ultrathurrax for 20-30 seconds in a suitable amount of Buffer 1 (depending on the amount of cells, but e.g. 10 ml). The homogenate was centrifuged at 20000 rpm for 15 minutes. The pellet was resuspended (homogenised) in 10 ml Buffer 2 and re-centrifuged. This step was repeated once more. The resulting pellet was resuspended in Buffer 2, and the protein concentration was determined. The membranes were stored at minus 80° C.
Buffer 1: 20 mM Na-HEPES+10 mM EDTA, pH 7.4
Buffer 2: 20 mM Na-HEPES+0.1 mM EDTA, pH 7.4
Test compounds, membranes, SPA-particles and [^125I]-GLP-1(7-36)NH2 were diluted in assay buffer. 50 ul (micro liter) HSA (“high albumin” experiment containing 2% HSA), or buffer (“low albumin” experiment containing 0.001% HSA), was added to Optiplate, and 25 ul of test compounds were added. 5-10 ug membrane protein/sample was added (50 ul) corresponding to 0.1-0.2 mg protein/ml (to be preferably optimised for each membrane preparation). SPA-particles (Wheatgerm agglutinin SPA beads, Perkin Elmer, #RPNQ0001) were added in an amount of 0.5 mg/well (50 ul). The incubation was started with [^125I]-GLP-1]-(7-36)NH2 (final concentration 0.06 nM corresponding to 49.880 DPM, 25 ul). The plates were sealed with PlateSealer and incubated for 120 minutes at 30° C. while shaking. The plates were centrifuged (1500 rpm, 10 min) and counted in Topcounter.

[1] = Estimate of oral bioavailability: gut injection in rat (caprate), exposure in plasma; type: in vivo; settings: injection in jejunum, 1000 uM in 55 mg/ml sodium caprate, plasma concentration (pM) at 30 min divided by dosing solution concentration (μM), mean n=4
Protocol: The GLP-1 derivatives were tested in a concentration of 1000 uM in a solution of 55 mg/ml sodium caprate.
Male Sprague Dawley rats with a body weight upon arrival of approximately 240 g were obtained from Taconic (Denmark) and assigned to the different treatments by simple randomisation, 4 rats per group.
The GLP-1 derivatives were administered in the jejunum either in the proximal part (10 cm distal for the duodenum) or in the mid-intestine (50 cm proximal for the cecum). A PE50-catheter, 10 cm long was inserted into the jejunum, forwarded at least 1.5 cm into the jejunum, and secured before dosing by ligature around the gut and the catheter with 3/0 suture distal to tip to prevent leak or catheter displacement. Catheter was placed without syringe and needle and 2 ml saline was administered into abdomen before closing the incision with wound clips.
100 μl of the respective GLP-1 derivative was injected into the jejunal lumen through the catheter with a 1 ml syringe. Subsequently, 200 μl of air was pushed into the jejunal lumen with another syringe to “flush” the catheter. This syringe was leaved connected to the catheter to prevent flow back into the catheter.
Blood samples (200 ul) were collected at desired intervals (usually at times 0, 10, 30, 60, 120 and 240 min) into EDTA tubes from the tail vein and centrifuged 5 minutes, 10000G, at 4° C. within 20 minutes. […] 12, p. 240-247. The donor beads were coated with streptavidin, while acceptor beads were conjugated with a monoclonal antibody recognising a mid-/C-terminal epitope of the peptide. Another monoclonal antibody, specific for the N-terminus, was biotinylated. The three reactants were combined with the analyte and formed a two-sited immuno-complex. Illumination of the complex released singlet oxygen atoms from the donor beads, which were channeled into the acceptor beads and triggered chemiluminescence which was measured in an Envision plate reader. The amount of light was proportional to the concentration of the compound.
After the blood sampling the rats were sacrificed under anaesthesia and the abdomen was opened to verify correct catheter placement.
The mean (n=4) plasma concentrations (pmol/l) were determined as a function of time.

T1 sequence (P43220 24-463): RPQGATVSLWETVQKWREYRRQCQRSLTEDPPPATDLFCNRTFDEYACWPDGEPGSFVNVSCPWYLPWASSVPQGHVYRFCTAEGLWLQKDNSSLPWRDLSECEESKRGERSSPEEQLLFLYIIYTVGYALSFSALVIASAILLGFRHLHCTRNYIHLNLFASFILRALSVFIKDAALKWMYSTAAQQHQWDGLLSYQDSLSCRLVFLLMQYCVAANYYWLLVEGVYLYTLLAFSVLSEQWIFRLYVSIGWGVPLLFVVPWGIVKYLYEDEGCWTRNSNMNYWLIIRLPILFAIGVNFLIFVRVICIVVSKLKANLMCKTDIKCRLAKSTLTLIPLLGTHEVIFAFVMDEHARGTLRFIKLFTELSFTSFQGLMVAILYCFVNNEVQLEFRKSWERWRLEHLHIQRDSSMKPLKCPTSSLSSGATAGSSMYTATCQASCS

Row | SMILES | Ratio [(IC50/nM) high HSA]/[(IC50/nM) low HSA] (human GLP-1 receptor; 2.0% HSA vs 0.001% HSA) | Dose-corrected exposure at 30 min [1] | IC50 (human GLP-1 receptor; low albumin, 0.001% HSA, read-out: IC50/nM (low HSA)) [nM]
1 | CC[C@H](C)[C@H](NC(=O)[C@H](Cc1ccccc1)NC(=O)[C@H](CCCCNC(=O)COCCOCCNC(=O)COCCOCCNC(=O)CC[C@H](NC(=O)CCCCCCCCCOc1ccc(C(=O)O)cc1)C(=O)O)NC(=O)[C@H](CCCNC(=N)N)NC(=O)[C@H](C)NC(=O)[C@H](C)NC(=O)[C@H](CCC(N)=O)NC(=O)[C@H](CCC(=O)O)NC(=O)[C@H](CCC(=O)O)NC(=O)[C@H](CCCCNC(=O)COCCOCCNC(=O)COCCOCCNC(=O)CC[C@H](NC(=O)CCCCCCCCCOc1ccc(C(=O)O)cc1)C(=O)O)NC(=O)[C@H](Cc1ccc(O)cc1)NC(=O)[C@H](CO)NC(=O)[C@H](CO)NC(=O)[C@@H](NC(=O)[C@H](CC(=O)O)NC(=O)[C@H](CO)NC(=O)[C@@H](NC(=O)[C@H](Cc1ccccc1)NC(=O)[C@@H](NC(=O)CNC(=O)[C@H](CCC(=O)O)NC(=O)C(C)(C)NC(=O)[C@@H](N)Cc1c[nH]cn1)[C@@H](C)O)[C@@H](C)O)C(C)C)C(=O)N[C@@H](CCC(=O)O)C(=O)N[C@@H](Cc1c[nH]c2ccccc12)C(=O)N[C@@H](CC(C)C)C(=O)N[C@H](C(=O)NCC(=O)O)C(C)C [Example 5, N^ε20-[2-[2-[2-[[2-[2-[2-[[(4S)-4-carboxy-4-[10-(4-carboxyphenoxy)decanoylamino]butanoyl]amino]ethoxy]ethoxy]acetyl]amino]ethoxy]ethoxy]acetyl], N^ε27-[2-[2-[2-[[2-[2-[2-[[(4S)-4-carboxy-4-[10-(4-carboxyphenoxy)decanoylamino]butanoyl]amino]ethoxy]ethoxy]acetyl]amino]ethoxy]ethoxy]acetyl]-[Aib^8,Lys^20,Glu^22,Arg^26,Lys^27,Glu^30,Gly^34]-GLP-1-(7-34)-peptide] (H-H[Aib]EGTFTSDVSSYK([AEEA-AEEA-γGlu-Decanoyl(10-(4-HOOC-PhO))])EEQAARK([AEEA-AEEA-γGlu-Decanoyl(10-(4-HOOC-PhO))])FIEWLVG-OH) | 79 | 124 | 
2 | CC[C@H](C)[C@H](NC(=O)[C@H](Cc1ccccc1)NC(=O)[C@H](CCCCNC(=O)COCCOCCNC(=O)COCCOCCNC(=O)CC[C@H](NC(=O)CCCCCCCCCCCCC(=O)O)C(=O)O)NC(=O)[C@H](CCCNC(=N)N)NC(=O)[C@@H](NC(=O)[C@H](C)NC(=O)[C@H](CCC(N)=O)NC(=O)CNC(=O)[C@H](CCC(=O)O)NC(=O)[C@H](CC(C)C)NC(=O)[C@H](Cc1ccc(O)cc1)NC(=O)[C@H](CO)NC(=O)[C@H](CO)NC(=O)[C@@H](NC(=O)[C@H](CC(=O)O)NC(=O)[C@H](CO)NC(=O)[C@@H](NC(=O)[C@H](Cc1ccccc1)NC(=O)[C@@H](NC(=O)CNC(=O)[C@H](CCC(=O)O)NC(=O)[C@H](C)NC(=O)[C@@H](N)Cc1c[nH]cn1)[C@@H](C)O)[C@@H](C)O)C(C)C)C(C)C)C(=O)N[C@@H](C)C(=O)N[C@@H](Cc1c[nH]cn1)C(=O)N[C@@H](CC(C)C)C(=O)N[C@H](C(=O)N[C@@H](CCC(N)=O)C(=O)NCC(=O)N[C@@H](CCCNC(=N)N)C(=O)N[C@@H](CCCCNC(=O)COCCOCCNC(=O)COCCOCCNC(=O)CC[C@H](NC(=O)CCCCCCCCCCCCC(=O)O)C(=O)O)C(=O)O)C(C)C [Example 16, N^ε27-[2-[2-[2-[[2-[2-[2-[[(4S)-4-carboxy-4-(13-carboxytridecanoylamino)butanoyl]amino]ethoxy]ethoxy]acetyl]amino]ethoxy]ethoxy]acetyl], N^ε37-[2-[2-[2-[[2-[2-[2-[[(4S)-4-carboxy-4-(13-carboxytridecanoylamino)butanoyl]amino]ethoxy]ethoxy]acetyl]amino]ethoxy]ethoxy]acetyl]-[Val^25,Arg^26,Lys^27,His^31,Gln^34,Lys^37]-GLP-1-(7-37)-peptide] (H-HAEGTFTSDVSSYLEGQAVRK([AEEA-AEEA-γGlu-C14 diacid])FIAHLVQGRK([AEEA-AEEA-γGlu-C14 diacid])-OH; N-terminus and C-terminus assumed) |  | 115 | 0.2
3 | CC[C@H](C)[C@H](NC(=O)[C@H](Cc1ccccc1)NC(=O)[C@H](CCCCNC(=O)COCCOCCNC(=O)COCCOCCNC(=O)CC[C@H](NC(=O)CCCCCCCCCOc1ccc(C(=O)O)cc1)C(=O)O)NC(=O)[C@H](CCCNC(=N)N)NC(=O)[C@@H](NC(=O)[C@H](C)NC(=O)[C@H](CCC(N)=O)NC(=O)[C@H](CCC(=O)O)NC(=O)[C@H](CCC(=O)O)NC(=O)[C@H](CC(C)C)NC(=O)[C@H](Cc1ccc(O)cc1)NC(=O)[C@H](CO)NC(=O)[C@H](CO)NC(=O)[C@@H](NC(=O)[C@H](CC(=O)O)NC(=O)[C@H](CO)NC(=O)[C@@H](NC(=O)[C@H](Cc1ccccc1)NC(=O)[C@@H](NC(=O)CNC(=O)[C@H](CCC(=O)O)NC(=O)[C@H](C)NC(=O)[C@@H](N)Cc1c[nH]cn1)[C@@H](C)O)[C@@H](C)O)C(C)C)C(C)C)C(=O)N[C@@H](C)C(=O)N[C@@H](Cc1c[nH]c2ccccc12)C(=O)N[C@@H](CC(C)C)C(=O)N[C@H](C(=O)N[C@@H](CCCNC(=N)N)C(=O)NCC(=O)N[C@@H](CCCNC(=N)N)C(=O)N[C@@H](CCCCNC(=O)COCCOCCNC(=O)COCCOCCNC(=O)CC[C@H](NC(=O)CCCCCCCCCOc1ccc(C(=O)O)cc1)C(=O)O)C(=O)O)C(C)C [Example 4, N^ε27-[2-[2-[2-[[2-[2-[2-[[(4S)-4-carboxy-4-[10-(4-carboxyphenoxy)decanoylamino]butanoyl]amino]ethoxy]ethoxy]acetyl]amino]ethoxy]ethoxy]acetyl], N^ε37-[2-[2-[2-[[2-[2-[2-[[(4S)-4-carboxy-4-[10-(4-carboxyphenoxy)decanoylamino]butanoyl]amino]ethoxy]ethoxy]acetyl]amino]ethoxy]ethoxy]acetyl]-[Glu^22,Val^25,Arg^26,Lys^27,Arg^34,Lys^37]-GLP-1-(7-37)-peptide] (H-HAEGTFTSDVSSYLEEQAVRK([AEEA-AEEA-γGlu-Decanoyl(10-(4-HOOC-PhO))])FIAWLVRGRK([AEEA-AEEA-γGlu-Decanoyl(10-(4-HOOC-PhO))])-OH; N-terminus and C-terminus assumed) |  | 39 | 
